Residue numbers refer to the chain shown, from its start.
Columns and labels:
GCNF LBD F361A = biological target: T1, GCNF LBD F361A (Homo sapiens, UniProt Q15406, F361A); assay: DSF of GCNF LBD mutant F361A; type: binding; details: 20 μM ligand
T1 construct: Human GCNF (NR6A1) LBD (residues 248-480) and mutants F284A/F361A; hexahistidine tag with 3C protease site; made in house; host or cells: E. coli BL(21) DE3
T1 sequence (Q15406 248-480 F361A): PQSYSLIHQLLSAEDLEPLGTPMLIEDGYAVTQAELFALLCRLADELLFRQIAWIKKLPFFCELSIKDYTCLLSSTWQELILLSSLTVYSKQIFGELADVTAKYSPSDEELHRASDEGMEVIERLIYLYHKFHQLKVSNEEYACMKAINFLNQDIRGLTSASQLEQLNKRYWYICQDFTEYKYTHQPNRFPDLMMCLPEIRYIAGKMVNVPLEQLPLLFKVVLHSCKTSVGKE
Method: (§1) Protein Expression and Purification. Human GCNF (NR6A1) LBD (residues 248-480) and mutants F284A/F361A, human LRH-1 (NR5A2) LBD (residues 291-541), human RXRα LBD (residues 223-462), human COUP-TF I LBD (residues 184-410) and human SF-1 LBD (residues 219-461) were subcloned in pET45b(+) plasmid (Novagen) were expressed in E. coli BL(21) DE3 cells in terrific broth with 0.1 mg/mL ampicillin as 3C protease-cleavable hexahistidine-tagged fusion proteins. The bacterial culture was grown at 37° C. to an optical density of 0.8 to 1.0 at 600 nm. Protein expression was induced by adding 1 mM IPTG and was allowed to proceed for 14 h at 22° C. […]
(§2) DSF Assay. […] A total of 450 compounds (Life Chemicals) previously selected from a nuclear-receptor-biased library targeting REV-ERB were analyzed. Thermal stability was assessed on a Quantstudio 6 instrument (Biosystems) by ramping the temperature from 25° C. to 95° C. at 0.05° C./s and protein melt shifts were subsequently quantified by Boltzmann-derived melting temperature (Tm) using the Protein Thermal Shift (ThermoFisher) software. […]

GCNF LBD = biological target: T2, GCNF LBD (Homo sapiens, UniProt Q15406); assay: Solution 1H NMR methyl peak perturbation of GCNF LBD; type: binding; details: 1.05:1 molar equivalence of ligand; seven shielded resonances monitored
T2 construct: Human GCNF (NR6A1) LBD (residues 248-480); made in house; host or cells: E. coli BL(21) DE3
T2 sequence (Q15406 248-480): T1 sequence (Q15406 248-480 F361A) with A114F
Method: Solution NMR spectroscopy. One hundred micromolar (100 μM) of GCNF LBD with 10% D2O were mixed with either 0.5% DMSO-d6 or 1.05:1 molar equivalence of ligand and transferred to a Shigemi tube. ^1H NMR data were acquired at 298 K on a 700 MHz Bruker Avance II HDTM NMR instrument equipped with a QCI cryoprobe. For each spectrum, 1024 transients were collected into 32,000 data points, with a spectral width of 16.7 kHz. Data were analyzed using Topspin 3.5 pl 7.

[1] = biological target: T3, GCNF LBD with SMRT ID2 corepressor peptide (Homo sapiens, UniProt Q15406); assay: FP ligand titration assay, SMRT ID2 peptide recruitment; type: biochemical; details: 20 μM GCNF LBD
T3 construct: Human GCNF (NR6A1) LBD (residues 248-480); made in house; host or cells: E. coli BL(21) DE3
Method: FP Assay. Fluorescence polarization (FP) assays were performed in triplicate on a 384-well Corning 3820 black opaque plate using a Biotek Synergy Neo2 HTS multimode microplate reader at excitation and emission wavelengths of 485 nm and 538 nm, respectively. Data were analyzed and plotted using GraphPad Prism as mean±SEM.
For the FP ligand titration assay, the aforementioned N-terminus fluorescein-tagged corepressor peptides were diluted to 500 nM from a 100 μM DMSO stock in the presence of 20 μM GCNF LBD and ligand concentration points 30, 20, 13, 9, 6, 4, 2.6, 1.7 and 0 μM in assay buffer containing 50 mM HEPES (pH 7.5), 50 mM KCl, 5 mM TCEP, 0.5 mM EDTA and 0.005% Tween20. The relative polarization was plotted against log of ligand concentration (μM) and the half maximal effective concentration (EC50) values were derived via sigmoidal fit.

COUP-TF I LBD = biological target: T4, COUP-TF I LBD (Homo sapiens, UniProt P10589); assay: DSF specificity assay, COUP-TF I; type: binding
T4 construct: human COUP-TF I LBD (residues 184-410); hexahistidine tag with 3C protease site; made in house; host or cells: E. coli BL(21) DE3
T4 sequence (P10589 184-410): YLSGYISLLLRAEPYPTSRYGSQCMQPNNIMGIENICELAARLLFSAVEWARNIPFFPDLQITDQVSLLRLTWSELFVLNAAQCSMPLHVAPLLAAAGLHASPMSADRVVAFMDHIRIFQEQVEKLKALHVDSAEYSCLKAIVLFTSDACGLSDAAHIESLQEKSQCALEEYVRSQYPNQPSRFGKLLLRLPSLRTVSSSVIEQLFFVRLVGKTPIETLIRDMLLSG
Method: as §1, §2

T3 sequence (Q15406 248-480): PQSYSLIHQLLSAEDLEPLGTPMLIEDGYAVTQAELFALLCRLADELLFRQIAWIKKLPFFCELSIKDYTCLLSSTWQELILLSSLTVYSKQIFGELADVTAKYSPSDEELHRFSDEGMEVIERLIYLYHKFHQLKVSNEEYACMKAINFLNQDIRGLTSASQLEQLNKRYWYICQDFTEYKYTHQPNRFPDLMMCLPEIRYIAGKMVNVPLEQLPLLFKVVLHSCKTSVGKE
T3 sequence (Q9Y618 2332-2354 partner limits assumed): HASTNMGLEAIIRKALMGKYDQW

Row | Compound | effect of mutation F361A on ΔTm compared to WT (GCNF LBD F361A) | shielded methyl 1H NMR resonances of GCNF LBD perturbed (GCNF LBD) | effect on recruitment of SMRT ID2 to GCNF [1] | change of Tm of COUP-TF I LBD (COUP-TF I LBD)
1 | Cc1ccc(-n2ncc3c(N4CCOCC4)nc(NCc4ccco4)nc32)cc1 [Ligand 34, N-[(furan-2-yl)methyl]-1-(4-methylphenyl)-4-(morpholin-4-yl)-1H-pyrazolo[3,4-d]pyrimidin-6-amine] | substantially decreased the ΔTm | 5 of 7 | increased the recruitment | did not significantly change
2 | O=C(Cn1cc(S(=O)(=O)c2ccccc2)c2ccccc21)N1CCc2ccccc21 [Ligand 80, 2-[3-(benzenesulfonyl)-1H-indol-1-yl]-1-(2,3-dihydro-1H-indol-1-yl)ethan-1-one] | completely abrogated the interaction | 5 out of 7 | but not ligand 80, increased the recruitment of SMRT ID2 | did not significantly change

From patent publication US12478628B2, “Germ cell nuclear factor ligands and methods of use thereof” (Saint Louis University, priority 2020, dated 2025)
